“And” between values parts separate entries of the source, which are not always exact repeats. Identical values can stand only once. Like-named read-outs stand apart in the source and are kept apart here.
Conditions: rat; for Feces Excretion, Amount Excreted (% of Dose), 8 hours: collection 0-8 hours; for Feces Excretion, Amount Excreted (% of Dose), 120 hours / Urinary Excretion, Amount Excreted (% of Dose), 120 hours: collection 96-120 hours; for Feces Excretion, Amount Excreted (% of Dose), 144 hours / Urinary Excretion, Amount Excreted (% of Dose), 144 hours: collection 120-144 hours; for Feces Excretion, Amount Excreted (% of Dose), 168 hours / Urinary Excretion, Amount Excreted (% of Dose), 168 hours: collection 144-168 hours
[1] = intravenous 0.2 mg/kg (Group 1), Mean
[2] = intravenous 0.2 mg/kg (Group 1), individual animals, 0.2 mg/kg
[3] = intravenous 0.2 mg/kg (Group 1), collection 24-48 hours, individual animals, 0.2 mg/kg
[4] = intravenous 0.2 mg/kg (Group 1), collection 48-72 hours, Mean
[5] = intravenous 0.2 mg/kg (Group 1), collection 48-72 hours, individual animals, 0.2 mg/kg
[6] = intravenous 0.2 mg/kg (Group 1), collection 72-96 hours, Mean
[7] = intravenous 0.2 mg/kg (Group 1), collection 72-96 hours, individual animals, 0.2 mg/kg
[8] = intravenous 0.2 mg/kg (Group 1), necropsy Day 4, Mean
[9] = intravenous 0.2 mg/kg (Group 1), necropsy Day 4, individual animals, 0.2 mg/kg
[10] = intravenous 0.2 mg/kg (Group 1), necropsy Day 8, Mean
[11] = intravenous 0.2 mg/kg (Group 1), necropsy Day 8, individual animals, 0.2 mg/kg

In the case of `NCCCC(O)(P(=O)(O)O)P(=O)(O)O` [14C-alendronate], the “Recovery from Treated Skin, % of Dose” value (dermal (Group 2), necropsy Day 8, individual animals) is reported as 0.25% and 0.22% (2×) and 0.33% and 0.39%, the “Urinary Excretion, Total Excretion (% of Dose), 0-72 hours” value (in vivo) is reported as 1.16% of Dose and the “Feces Excretion, Amount Excreted (% of Dose), 72 hours” value (in vivo, iv, 0.2 mg/kg) is reported as 1.17% of Dose. The “Feces Excretion, Amount Excreted (% of Dose), 96 hours” value (in vivo, iv, 0.2 mg/kg) was 1.17% of Dose, the “Urinary Excretion, Amount Excreted (% of Dose), 24 hours” value (in vivo, iv, 0.2 mg/kg) was 1.19% of Dose and 1.28% of Dose and 1.37% of Dose and 1.27% of Dose and 1.06% of Dose and the “Urinary Excretion, Total Excretion (% of Dose), 0-72 hours” value (in vivo, iv, 0.2 mg/kg) was 11.3% of Dose. For the same compound, the “Feces Excretion, Total Excretion (% of Dose), 0-72 hours” value [1] was 4.1% of Dose, the “Urinary Excretion, Total Excretion (% of Dose), 0-72 hours” value [1] was 7.3% of Dose and the “Feces Excretion, Amount Excreted (% of Dose), 8 hours” value [1] was 0.12% of Dose. For the same compound, the “Feces Excretion, Amount Excreted (% of Dose), 8 hours” value [2] was 0.01% of Dose and 0.02% of Dose and 0.00% of Dose (3×) and 0.67% of Dose, the “Urinary Excretion, Amount Excreted (% of Dose), 24 hours” value (intravenous 0.2 mg/kg (Group 1), collection 8-24 hours, Mean) was 1.2% of Dose and the “Urinary Excretion, Amount Excreted (% of Dose), 24 hours” value (intravenous 0.2 mg/kg (Group 1), collection 8-24 hours, individual animals) was 0.94% of Dose. The “Urinary Excretion, Amount Excreted (% of Dose), 48 hours” value (intravenous 0.2 mg/kg (Group 1), collection 24-48 hours, Mean) was 0.8% of Dose, the “Feces Excretion, Amount Excreted (% of Dose), 48 hours” value [3] was 0.47% of Dose and 0.92% of Dose and the “Urinary Excretion, Amount Excreted (% of Dose), 48 hours” value [3] was 0.78% of Dose and 0.94% of Dose and 0.75% of Dose and 0.95% of Dose and 0.34% of Dose and 0.85% of Dose. For the same compound, the “Feces Excretion, Amount Excreted (% of Dose), 72 hours” value [4] was 0.57% of Dose, the “Urinary Excretion, Amount Excreted (% of Dose), 72 hours” value [4] was 0.4% of Dose and the “Feces Excretion, Amount Excreted (% of Dose), 72 hours” value [5] was 0.15% of Dose and 0.24% of Dose and 0.44% of Dose and 0.87% of Dose. The “Urinary Excretion, Amount Excreted (% of Dose), 72 hours” value [5] was 0.56% of Dose and 0.34% of Dose and 0.51% of Dose and 0.61% of Dose and 0.20% of Dose and 0.26% of Dose, the “Feces Excretion, Amount Excreted (% of Dose), 96 hours” value [6] was 0.55% of Dose and the “Urinary Excretion, Amount Excreted (% of Dose), 96 hours” value [6] was 0.5% of Dose. The “Feces Excretion, Amount Excreted (% of Dose), 96 hours” value [7] was 0.32% of Dose and 0.14% of Dose, the “Urinary Excretion, Amount Excreted (% of Dose), 96 hours” value [7] was 0.74% of Dose and 0.15% of Dose and 0.57% of Dose and the “Feces Excretion, Amount Excreted (% of Dose), 120 hours” value [1] was 0.41% of Dose. For the same compound, the “Urinary Excretion, Amount Excreted (% of Dose), 120 hours” value [1] was 0.3% of Dose, the “Feces Excretion, Amount Excreted (% of Dose), 120 hours” value [2] was 0.56% of Dose and 0.12% of Dose and 0.54% of Dose and the “Urinary Excretion, Amount Excreted (% of Dose), 120 hours” value [2] was 0.43% of Dose and 0.11% of Dose and 0.27% of Dose. The “Feces Excretion, Amount Excreted (% of Dose), 144 hours” value [1] was 0.34% of Dose, the “Urinary Excretion, Amount Excreted (% of Dose), 144 hours” value [1] was 0.3% of Dose and the “Feces Excretion, Amount Excreted (% of Dose), 144 hours” value [2] was 0.36% of Dose and 0.08% of Dose and 0.59% of Dose. For the same compound, the “Urinary Excretion, Amount Excreted (% of Dose), 144 hours” value [2] was 0.59% of Dose and 0.06% of Dose and 0.31% of Dose, the “Feces Excretion, Amount Excreted (% of Dose), 168 hours” value [1] was 0.04% of Dose and the “Urinary Excretion, Amount Excreted (% of Dose), 168 hours” value [1] was 0.2% of Dose. The “Feces Excretion, Amount Excreted (% of Dose), 168 hours” value [2] was 0.06% of Dose and 0.02% of Dose and 0.05% of Dose, the “Urinary Excretion, Amount Excreted (% of Dose), 168 hours” value [2] was 0.33% of Dose and 0.18% of Dose and 0.16% of Dose and the “Feces Excretion, Total Excretion (% of Dose), 0-72 hours” value [2] was 3.1% of Dose and 8.6% of Dose and 2.4% of Dose and 3.2% of Dose and 2.3% of Dose and 5.0% of Dose. The “Feces Excretion, Total Excretion (% of Dose), 0-168 hours” value [2] was 5.6% of Dose and 3.1% of Dose and 8.2% of Dose, the “Urinary Excretion, Total Excretion (% of Dose), 0-72 hours” value [2] was 8.0% of Dose and 7.6% of Dose and 7.8% of Dose and 3.9% of Dose and 5.2% of Dose and the “Concentration in bone, Femur” value [8] was 0.500 μg 14C-alendronate/g bone. For the same compound, the “Concentration in bone, Tibia” value [8] was 0.492 μg 14C-alendronate/g bone, the “Concentration in bone, Femur” value [9] was 0.525 μg 14C-alendronate/g bone and 0.408 μg 14C-alendronate/g bone and 0.568 μg 14C-alendronate/g bone and the “Concentration in bone, Tibia” value [9] was 0.551 μg 14C-alendronate/g bone and 0.547 μg 14C-alendronate/g bone and 0.379 μg 14C-alendronate/g bone. For the same compound, the “Concentration in bone, Femur” value [10] was 0.679 μg 14C-alendronate/g bone, the “Concentration in bone, Tibia” value [10] was 0.586 μg 14C-alendronate/g bone and the “Concentration in bone, Femur” value [11] was 0.707 μg 14C-alendronate/g bone and 0.692 μg 14C-alendronate/g bone and 0.639 μg 14C-alendronate/g bone. The “Concentration in bone, Tibia” value [11] was 0.704 μg 14C-alendronate/g bone and 0.680 μg 14C-alendronate/g bone and 0.374 μg 14C-alendronate/g bone.
